Tests used:
Type in all cases: functional
A549 = test: Growth inhibition of human A549 cells after 48 hrs by sulforhodamine B assay; conditions: A549, 48 h; for TGI: read-out: pTGI (converted)
HCT-116 = test: Growth inhibition of human HCT116 cells after 48 hrs by sulforhodamine B assay; conditions: HCT-116, 48 h; for TGI: read-out: pTGI (converted)
SK-MEL-2 = test: Growth inhibition of human SK-MEL-2 cells after 48 hrs by sulforhodamine B assay; conditions: SK-MEL-2, 48 h; for TGI: read-out: pTGI (converted)
OVCAR-4 = test: Growth inhibition of human OVCAR4 cells after 48 hrs by sulforhodamine B assay; conditions: OVCAR-4, 48 h; for TGI: read-out: pTGI (converted)
A498 = test: Growth inhibition of human A498 cells after 48 hrs by sulforhodamine B assay; conditions: A498, 48 h; for TGI: read-out: pTGI (converted)
CCRF-CEM = test: Growth inhibition of human CCRF-CEM cells after 48 hrs by sulforhodamine B assay; conditions: for TGI: read-out: pTGI (converted)
M14 = test: Growth inhibition of human M14 cells after 48 hrs by sulforhodamine B assay; conditions: M14, 48 h; for TGI: read-out: pTGI (converted)
OVCAR-8 = test: Growth inhibition of human OVCAR8 cells after 48 hrs by sulforhodamine B assay; conditions: OVCAR-8, 48 h; for TGI: read-out: pTGI (converted)
RPMI-8226 = test: Growth inhibition of human RPMI8226 cells after 48 hrs by sulforhodamine B assay; conditions: RPMI-8226, 48 h; for TGI: read-out: pTGI (converted)
NCI-H322M = test: Growth inhibition of human NCI-H322M cells after 48 hrs by sulforhodamine B assay; conditions: for TGI: read-out: pTGI (converted)
OVCAR-5 = test: Growth inhibition of human OVCAR5 cells after 48 hrs by sulforhodamine B assay; conditions: OVCAR-5, 48 h; for TGI: read-out: pTGI (converted)
ACHN = test: Growth inhibition of human ACHN cells after 48 hrs by sulforhodamine B assay; conditions: for TGI: read-out: pTGI (converted)
HT-29 = test: Growth inhibition of human HT-29 cells after 48 hrs by sulforhodamine B assay; conditions: HT-29, 48 h; for TGI: read-out: pTGI (converted)
SW-620 = test: Growth inhibition of human SW620 cells after 48 hrs by sulforhodamine B assay; conditions: SW-620, 48 h; for TGI: read-out: pTGI (converted)
SF-295 = test: Growth inhibition of human SF295 cells after 48 hrs by sulforhodamine B assay; conditions: SF-295, 48 h; for TGI: read-out: pTGI (converted)
Malme-3M = test: Growth inhibition of human MALME-3M cells after 48 hrs by sulforhodamine B assay; conditions: for TGI: read-out: pTGI (converted)
MDA-MB-435 = test: Growth inhibition of human MDA-MB-435 cells after 48 hrs by sulforhodamine B assay; conditions: MDA-MB-435, 48 h; for TGI: read-out: pTGI (converted)
T47D = test: Growth inhibition of human T47D cells after 48 hrs by sulforhodamine B assay; conditions: for TGI: read-out: pTGI (converted)
MDA-MB-468 = test: Growth inhibition of human MDA-MB-468 cells after 48 hrs by sulforhodamine B assay; conditions: MDA-MB-468, 48 h; for TGI: read-out: pTGI (converted)
SN12C = test: Growth inhibition of human SN12C cells after 48 hrs by sulforhodamine B assay; conditions: for TGI: read-out: pTGI (converted)
UACC-62 = test: Growth inhibition of human UACC62 cells after 48 hrs by sulforhodamine B assay; conditions: UACC-62, 48 h; for TGI: read-out: pTGI (converted)
UO-31 = test: Growth inhibition of human UO31 cells after 48 hrs by sulforhodamine B assay; conditions: UO-31, 48 h; for TGI: read-out: pTGI (converted)
SF-539 = test: Growth inhibition of human SF539 cells after 48 hrs by sulforhodamine B assay; conditions: SF-539, 48 h; for TGI: read-out: pTGI (converted)
NCI-H460 = test: Growth inhibition of human NCI-H460 cells after 48 hrs by sulforhodamine B assay; conditions: NCI-H460, 48 h; for TGI: read-out: pTGI (converted)
SK-OV-3 = test: Growth inhibition of human SKOV3 cells after 48 hrs by sulforhodamine B assay; conditions: SK-OV-3, 48 h; for TGI: read-out: pTGI (converted)
SNB-75 = test: Growth inhibition of human SNB75 cells after 48 hrs by sulforhodamine B assay; conditions: SNB-75, 48 h; for TGI: read-out: pTGI (converted)
PC-3 = test: Growth inhibition of human PC3 cells after 48 hrs by sulforhodamine B assay; conditions: PC-3, 48 h; for CC50: read-out: pLC50 (the source's name) (converted); for TGI: read-out: pTGI (converted)
K562 = test: Growth inhibition of human K562 cells after 48 hrs by sulforhodamine B assay; conditions: K562, 48 h
NCI-H23 = test: Growth inhibition of human NCI-H23 cells after 48 hrs by sulforhodamine B assay; conditions: NCI-H23, 48 h; for TGI: read-out: pTGI (converted)
HCT-15 = test: Growth inhibition of human HCT15 cells after 48 hrs by sulforhodamine B assay; conditions: HCT-15, 48 h; for TGI: read-out: pTGI (converted)
UACC-257 = test: Growth inhibition of human UACC257 cells after 48 hrs by sulforhodamine B assay; conditions: UACC-257, 48 h; for TGI: read-out: pTGI (converted)
KM12 = test: Growth inhibition of human KM12 cells after 48 hrs by sulforhodamine B assay; conditions: KM12, 48 h; for TGI: read-out: pTGI (converted)

## COc1cc(/C=C/c2cc(F)c3c(c2)C[C@@H]2C(C)(C)[C@H](O)CC[C@@]2(C)O3)cc(O)c1C/C=C(\C)CCC=C(C)C
A549
  LC50: 15.8 µM
  TGI: 4.9 µM
A549; read-out: GI50
  GI50: 2.14 µM
A549; read-out: pGI50 (converted)
  GI50: 2.14 µM
HCT-116
  GI50: 2.45 µM
  LC50: 20.4 µM
  TGI: 6.03 µM
SK-MEL-2
  GI50: 15.5 µM
  LC50: 75.9 µM
  TGI: 33.9 µM
OVCAR-4
  GI50: 12.6 µM
  LC50: > 100 µM
  TGI: 37.2 µM
A498
  GI50: 28.8 µM
  LC50: > 100 µM
  TGI: > 100 µM
CCRF-CEM
  GI50: 1.86 µM
  LC50: > 100 µM
  TGI: 4.37 µM
M14
  GI50: 12.9 µM
  LC50: 57.5 µM
  TGI: 26.9 µM
OVCAR-8
  GI50: 4.37 µM
  LC50: 50.1 µM
  TGI: 16.2 µM
RPMI-8226
  GI50: 2.04 µM
  LC50: > 100 µM
  TGI: 4.79 µM
NCI-H322M
  GI50: 34.7 µM
  LC50: > 100 µM
  TGI: > 100 µM
OVCAR-5
  GI50: 19.1 µM
  LC50: > 100 µM
  TGI: 70.8 µM
ACHN
  GI50: 11.7 µM
  LC50: 58.9 µM
  TGI: 26.3 µM
HT-29
  GI50: 2.57 µM
  LC50 (concentration killing 50% of cells): 41.7 µM
  TGI: 11 µM
SW-620
  GI50: 3.02 µM
  LC50: 33.1 µM
  TGI: 9.12 µM
SF-295
  LC50: 69.2 µM
  TGI: 21.4 µM
SF-295; read-out: GI50
  GI50: 5.01 µM
SF-295; read-out: pGI50 (converted)
  GI50: 5.01 µM
Malme-3M
  GI50: 14.8 µM
  LC50: 89.1 µM
  TGI: 36.3 µM
MDA-MB-435
  GI50: 13.2 µM
  LC50: 63.1 µM
  TGI: 28.8 µM
T47D
  GI50: 12.3 µM
  LC50: 77.6 µM
  TGI: 30.9 µM
MDA-MB-468
  GI50: 6.61 µM
  LC50: 45.7 µM
  TGI: 20 µM
SN12C
  GI50: 14.5 µM
  LC50: > 100 µM
  TGI: 39.8 µM
UACC-62
  GI50: 14.1 µM
  LC50 (50% lethal concentration): 63.1 µM
  TGI: 29.5 µM
UO-31
  GI50: 2.51 µM
  LC50: 27.5 µM
  TGI: 6.46 µM
SF-539
  GI50: 3.89 µM
  LC50: 43.7 µM
  TGI: 14.1 µM
NCI-H460
  GI50: 1.86 µM
  LC50 (concentration killing 50% of cells): 6.76 µM
  TGI: 3.55 µM
SK-OV-3
  GI50: 17 µM
  LC50: 57.5 µM
  TGI: 30.9 µM
SNB-75
  GI50: 2.95 µM
  LC50: 37.2 µM
  TGI: 13.8 µM
PC-3
  GI50: 5.13 µM
  CC50: > 100 µM
  TGI: 25.1 µM
K562
  GI50: 2.4 µM
  LC50: > 100 µM
NCI-H23
  GI50: 2.09 µM
  LC50: 20.9 µM
  TGI: 5.25 µM
HCT-15
  GI50: 12.3 µM
  LC50: 66.1 µM
  TGI: 28.8 µM
UACC-257
  GI50: 16.2 µM
  LC50: 93.3 µM
  TGI: 38.9 µM
KM12
  GI50: 1.91 µM
  LC50: 8.32 µM
  TGI: 3.98 µM

## COCOc1cc(/C=C/c2cc(CO)c3c(c2)C[C@@H]2C(C)(C)[C@H](O)CC[C@@]2(C)O3)cc(OC)c1C/C=C(\C)CCC=C(C)C
A549
  LC50: > 100 µM
  TGI: 26.9 µM
A549; read-out: GI50
  GI50: 1.41 µM
A549; read-out: pGI50 (converted)
  GI50: 0.977 µM
HCT-116
  GI50: 3.47 µM
  LC50: 45.7 µM
  TGI: 18.2 µM
SK-MEL-2
  GI50: 17.8 µM
  LC50: > 100 µM
  TGI: 66.1 µM
OVCAR-4
  GI50: 7.24 µM
  LC50: > 100 µM
  TGI: 44.7 µM
A498
  GI50: 0.933 µM
  LC50: 50.1 µM
  TGI: 19.5 µM
CCRF-CEM
  GI50: 1.02 µM
  LC50: > 100 µM
  TGI: > 100 µM
M14
  GI50: 0.692 µM
  LC50: > 100 µM
  TGI: 21.9 µM
OVCAR-8
  GI50: 11 µM
  LC50: 77.6 µM
  TGI: 29.5 µM
RPMI-8226
  GI50: 0.479 µM
  LC50: > 100 µM
  TGI: > 100 µM
NCI-H322M
  GI50: 22.4 µM
  LC50: > 100 µM
  TGI: 91.2 µM
OVCAR-5
  GI50: 6.61 µM
  LC50: > 100 µM
  TGI: 41.7 µM
ACHN
  GI50: 2.24 µM
  LC50: > 100 µM
  TGI: 50.1 µM
HT-29
  GI50: 2.04 µM
  LC50 (concentration killing 50% of cells): > 100 µM
  TGI: 19.1 µM
SW-620
  GI50: 1.95 µM
  LC50: 67.6 µM
  TGI: 13.5 µM
SF-295
  LC50: 33.9 µM
  TGI: 0.501 µM
SF-295; read-out: GI50
  GI50: 0.15 µM
SF-295; read-out: pGI50 (converted)
  GI50: 0.151 µM
Malme-3M
  GI50: 11.7 µM
  LC50: > 100 µM
  TGI: 67.6 µM
MDA-MB-435
  GI50: 1.38 µM
  LC50: > 100 µM
  TGI: 56.2 µM
T47D
  GI50: 11.5 µM
  LC50: > 100 µM
  TGI: 49 µM
MDA-MB-468
  GI50: 1.78 µM
  LC50: 49 µM
  TGI: 12.3 µM
SN12C
  GI50: 6.61 µM
  LC50: 58.9 µM
  TGI: 22.4 µM
UACC-62
  GI50: 0.55 µM
  LC50 (50% lethal concentration): 57.5 µM
  TGI: 10.7 µM
UO-31
  GI50: 0.501 µM
  LC50: 93.3 µM
  TGI: 15.1 µM
SF-539
  GI50: 0.141 µM
  LC50: > 100 µM
  TGI: 12.6 µM
NCI-H460
  GI50: 0.871 µM
  LC50 (concentration killing 50% of cells): > 100 µM
  TGI: > 100 µM
SK-OV-3
  GI50: 19.5 µM
  LC50: > 100 µM
  TGI: 81.3 µM
SNB-75
  GI50: 0.263 µM
  LC50: > 100 µM
  TGI: 14.8 µM
PC-3
  GI50: 0.912 µM
  CC50: > 100 µM
  TGI: > 100 µM
K562
  GI50: 2.51 µM
  LC50: > 100 µM
K562; read-out: pTGI (converted)
  TGI: 28.8 µM
NCI-H23
  GI50: 4.17 µM
  LC50: 74.1 µM
  TGI: 24.5 µM
HCT-15
  GI50: 1.35 µM
  LC50: 81.3 µM
  TGI: 10.2 µM
UACC-257
  GI50: 3.47 µM
  LC50: > 100 µM
  TGI: 39.8 µM
KM12
  GI50: 4.27 µM
  LC50: 57.5 µM
  TGI: 21.4 µM

— ChEMBL document CHEMBL1926642, “Relevance of the C-5 position to schweinfurthin induced cytotoxicity” (2011)
